Measurements as given in ChEMBL document CHEMBL1149890, “Brianodins A-D, briarane-type diterpenoids from soft coral Pachyclavularia sp” (J Nat Prod, 2008).
Values after ≈ are worked out from the molar mass of the structure shown.

Key:
L1210 = assay: Cytotoxicity against mouse L1210 cells; format: functional, cell-based
KB = assay: Cytotoxicity against human KB cells; format: functional, cell-based

Row | SMILES | IC50 (L1210) [µg/mL] | IC50 (KB) [µg/mL]
1 | CC(=O)O[C@@H]1C/C(C)=C\[C@@H]2OC(=O)[C@]3(C)O[C@]23[C@@H](OC(C)=O)[C@H]2[C@](C)(O)[C@H](OC(C)=O)C=C[C@]2(C)[C@@H]1O [BRIANODIN A] | 1.8 (≈ 3.44 µM) | 4.3 (≈ 8.23 µM)
2 | CC(=O)O[C@@H]1[C@H](O)[C@@H](OC(C)=O)/C(C)=C\[C@@H]2OC(=O)[C@@](C)(O)[C@@]2(O)[C@@H](OC(C)=O)[C@H]2[C@](C)(O)[C@H](OC(C)=O)C=C[C@]12C [BRIANODIN B] |  | > 10
3 | CC(=O)O[C@@H]1[C@H](O)[C@@H](OC(C)=O)/C(C)=C\[C@@H]2OC(=O)[C@@](C)(O)[C@@]2(O)[C@@H](OC(C)=O)[C@H]2[C@](C)(O)[C@H](O)C=C[C@]12C [BRIANODIN C] |  | > 10
4 | CC(=O)O[C@@H]1C/C(C)=C\[C@@H]2OC(=O)[C@@](C)(O)[C@@]2(O)[C@@H](OC(C)=O)[C@H]2[C@](C)(O)[C@H](O)C=C[C@]2(C)[C@@H]1O [BRIANODIN D] |  | > 10
